From patent US7176313B2, “Anti acid-fast bacterial agent containing pyridonecarboxylic acids as active ingredient” (Daiichi Pharmaceutical Co., Ltd., priority 2000, dated 2007) come the findings set out here.

Values after ≈ are worked out from the molar mass of the structure shown. Bounds are passed on as bounds.

Test [1] has as its system Mycobacterium tuberculosis (RFP sensitive). Description: Antibacterial activity (MIC) against Mycobacterium tuberculosis (RFP sensitive). The class given is cell-based. As to conditions: Table 5.
In test [2] the test system is M. intracellulare. Description: Antibacterial activity (MIC) against M. intracellulare. As to conditions: Table 3. Type of test: cell-based, Mycobacterium intracellulare. As for the experimental part:
Antibacterial activity of the compounds of the invention was measured in accordance with the method described in the literature of Antimicrob. Agents and Chemother., 38, 2877 (1994), and the results are shown in Tables 3 to 8 in terms of MIC (μg/ml). In the tables, “OFLX” is an abbreviation of “OFLOXAIN”.

Test [3] relates to M. avium. Description: Antibacterial activity (MIC) against M. avium. The class given is cell-based, Mycobacterium avium. The following applies: Table 3. As for the experimental part: Antibacterial activity of the compounds of the invention was measured in accordance with the method described in the literature of Antimicrob. […] In the tables, “OFLX” is an abbreviation of “OFLOXAIN”.

For orientation: MIC means the lowest concentration that inhibits growth of the organism. Read a low MIC as greater potency. With `O=C(O)c1cn(C2CC2)c2c(Cl)c(N3CC4CCCNC4C3)c(F)cc2c1=O` (centres unmarked) [Compd. 1], the MIC was 0.025 µg/mL (≈ 0.0616 µM) in test [1] (M. tuberculosis H37Rv); 0.013 µg/mL (≈ 0.032 µM) in test [1] (M. tuberculosis Kurono); 0.025 µg/mL (≈ 0.0616 µM) in test [1] (M. tuberculosis No. 40); below 0.003 µg/mL in test [1] (M. tuberculosis No. 41); 0.20 µg/mL (≈ 0.493 µM) in test [1] (M. tuberculosis No. 43); 0.025 µg/mL (≈ 0.0616 µM) in test [1] (M. tuberculosis No. 68). Also, the MIC stood at 0.39 µg/mL (≈ 0.961 µM) in test [2] (M. intracellulare N-294); 0.10 µg/mL (≈ 0.246 µM) in test [2] (M. intracellulare N-313); 0.39 µg/mL (≈ 0.961 µM) in test [2] (M. intracellulare N-338); 0.39 µg/mL (≈ 0.961 µM) in test [2] (M. intracellulare N-345); 0.10 µg/mL (≈ 0.246 µM) in test [3] (M. avium N-357); 0.20 µg/mL (≈ 0.493 µM) in test [3] (M. avium N-444). Besides, the MIC was 0.20 µg/mL (≈ 0.493 µM) in test [3] (M. avium N-458) and 1.56 µg/mL (≈ 3.84 µM) in test [3] (M. avium N-472).

Consider `O=C(O)c1cn([C@@H]2C[C@@H]2F)c2c(Cl)c(N3CC4CCCNC4C3)c(F)cc2c1=O` (some centres unmarked) [Compd. 2], for which the MIC in test [1] (M. tuberculosis H37Rv) was 0.025 µg/mL (≈ 0.059 µM); in test [1] (M. tuberculosis Kurono), 0.013 µg/mL (≈ 0.0307 µM); in test [1] (M. tuberculosis No. 40) it was 0.025 µg/mL (≈ 0.059 µM); in test [1] (M. tuberculosis No. 41) it was 0.006 µg/mL (≈ 0.0142 µM); in test [1] (M. tuberculosis No. 43), 0.10 µg/mL (≈ 0.236 µM); in test [1] (M. tuberculosis No. 68), 0.025 µg/mL (≈ 0.059 µM). Also, the MIC is 0.39 µg/mL (≈ 0.92 µM) in test [2] (M. intracellulare N-294); 0.20 µg/mL (≈ 0.472 µM) in test [2] (M. intracellulare N-313); 0.39 µg/mL (≈ 0.92 µM) in test [2] (M. intracellulare N-338); 0.78 µg/mL (≈ 1.84 µM) in test [2] (M. intracellulare N-345); 0.20 µg/mL (≈ 0.472 µM) in test [3] (M. avium N-357); 0.39 µg/mL (≈ 0.92 µM) in test [3] (M. avium N-444). For the same compound, the MIC turned out to be 0.20 µg/mL (≈ 0.472 µM) in test [3] (M. avium N-458) and 0.78 µg/mL (≈ 1.84 µM) in test [3] (M. avium N-472).

Regarding `NC1CN(c2c(F)cc3c(=O)c(C(=O)O)cn(C4CC4)c3c2Cl)CC12CC2` (centres unmarked) [Compd. 3], the minimum inhibitory concentration (MIC) in test [1] (M. tuberculosis H37Rv) was determined as 0.10 µg/mL (≈ 0.255 µM); in test [1] (M. tuberculosis Kurono), 0.05 µg/mL (≈ 0.128 µM); in test [1] (M. tuberculosis No. 40), 0.10 µg/mL (≈ 0.255 µM); in test [1] (M. tuberculosis No. 41), 0.006 µg/mL (≈ 0.0153 µM); in test [1] (M. tuberculosis No. 43), 0.78 µg/mL (≈ 1.99 µM); in test [1] (M. tuberculosis No. 68) it was 0.10 µg/mL (≈ 0.255 µM). Also, the MIC in test [2] (M. intracellulare N-294) worked out at 1.56 µg/mL (≈ 3.98 µM); in test [2] (M. intracellulare N-313), 0.39 µg/mL (≈ 0.995 µM); in test [2] (M. intracellulare N-338) it was 1.56 µg/mL (≈ 3.98 µM); in test [2] (M. intracellulare N-345) it was 1.56 µg/mL (≈ 3.98 µM); in test [3] (M. avium N-357), 0.39 µg/mL (≈ 0.995 µM); in test [3] (M. avium N-444), 1.56 µg/mL (≈ 3.98 µM). For the same compound, the MIC was determined as 0.78 µg/mL (≈ 1.99 µM) in test [3] (M. avium N-458) and 6.25 µg/mL (≈ 16 µM) in test [3] (M. avium N-472).

As to `NC1CN(c2c(F)cc3c(=O)c(C(=O)O)cn([C@@H]4C[C@@H]4F)c3c2Cl)CC12CC2` (some centres unmarked) [Compd. 4], the minimal inhibitory concentration (MIC) in test [1] (M. tuberculosis H37Rv) was 0.025 µg/mL (≈ 0.061 µM); in test [1] (M. tuberculosis Kurono) it was 0.013 µg/mL (≈ 0.0317 µM); in test [1] (M. tuberculosis No. 40), 0.025 µg/mL (≈ 0.061 µM); in test [1] (M. tuberculosis No. 41) it was below 0.003 µg/mL; in test [1] (M. tuberculosis No. 43), 0.20 µg/mL (≈ 0.488 µM); in test [1] (M. tuberculosis No. 68), 0.025 µg/mL (≈ 0.061 µM). The MIC was found to be 1.56 µg/mL (≈ 3.81 µM) in test [2] (M. intracellulare N-294); 0.39 µg/mL (≈ 0.952 µM) in test [2] (M. intracellulare N-313); 1.56 µg/mL (≈ 3.81 µM) in test [2] (M. intracellulare N-338); 3.13 µg/mL (≈ 7.64 µM) in test [2] (M. intracellulare N-345); 0.20 µg/mL (≈ 0.488 µM) in test [3] (M. avium N-357); 0.78 µg/mL (≈ 1.9 µM) in test [3] (M. avium N-444). Also, the MIC was determined as 0.39 µg/mL (≈ 0.952 µM) in test [3] (M. avium N-458) and 1.56 µg/mL (≈ 3.81 µM) in test [3] (M. avium N-472).

As for `COc1c(N2CC3CCCNC3C2)c(F)cc2c(=O)c(C(=O)O)cn(C3CC3)c12` (centres unmarked) [Compd. 5], the MIC in test [1] (M. tuberculosis H37Rv) was determined as 0.10 µg/mL (≈ 0.249 µM); in test [1] (M. tuberculosis Kurono) it was 0.05 µg/mL (≈ 0.125 µM); in test [1] (M. tuberculosis No. 40), 0.10 µg/mL (≈ 0.249 µM); in test [1] (M. tuberculosis No. 41) it was 0.025 µg/mL (≈ 0.0623 µM); in test [1] (M. tuberculosis No. 43), 0.78 µg/mL (≈ 1.94 µM); in test [1] (M. tuberculosis No. 68), 0.10 µg/mL (≈ 0.249 µM). Further, the MIC came out at 1.56 µg/mL (≈ 3.89 µM) in test [2] (M. intracellulare N-294); 0.78 µg/mL (≈ 1.94 µM) in test [2] (M. intracellulare N-313); 1.56 µg/mL (≈ 3.89 µM) in test [2] (M. intracellulare N-338); 3.13 µg/mL (≈ 7.8 µM) in test [2] (M. intracellulare N-345); 0.39 µg/mL (≈ 0.972 µM) in test [3] (M. avium N-357); 1.56 µg/mL (≈ 3.89 µM) in test [3] (M. avium N-444). This compound also yielded an MIC in test [3] (M. avium N-458) of 0.78 µg/mL (≈ 1.94 µM).

For `COc1c(N2CC3CCCNC3C2)c(F)cc2c(=O)c(C(=O)O)cn([C@@H]3C[C@@H]3F)c12` (some centres unmarked) [Compd. 6], the MIC in test [1] (M. tuberculosis H37Rv) was 0.10 µg/mL (≈ 0.238 µM); in test [1] (M. tuberculosis Kurono), 0.05 µg/mL (≈ 0.119 µM); in test [1] (M. tuberculosis No. 40), 0.10 µg/mL (≈ 0.238 µM); in test [1] (M. tuberculosis No. 41) it was 0.013 µg/mL (≈ 0.031 µM); in test [1] (M. tuberculosis No. 43), 0.78 µg/mL (≈ 1.86 µM); in test [1] (M. tuberculosis No. 68), 0.05 µg/mL (≈ 0.119 µM). For the same compound, the minimum inhibitory concentration (MIC) came to 0.78 µg/mL (≈ 1.86 µM) in test [2] (M. intracellulare N-294); 0.78 µg/mL (≈ 1.86 µM) in test [2] (M. intracellulare N-313); 1.56 µg/mL (≈ 3.72 µM) in test [2] (M. intracellulare N-338); 3.13 µg/mL (≈ 7.46 µM) in test [2] (M. intracellulare N-345); 0.39 µg/mL (≈ 0.93 µM) in test [3] (M. avium N-357); 1.56 µg/mL (≈ 3.72 µM) in test [3] (M. avium N-444). In addition, the MIC in test [3] (M. avium N-458) was 0.78 µg/mL (≈ 1.86 µM); in test [3] (M. avium N-472), 3.13 µg/mL (≈ 7.46 µM).
